Results reported in paper PMC11768653, “Characterization of the Phosphotransferase from Bacillus subtilis 1101 That Is Responsible for the Biotransformation of Zearalenone” (Toxins, 2025).

Biological target: T1, ZPH1101 (Bacillus subtilis, UniProt O34796)
T1 construct: gene yvkC; full-length zph1101 in pET29a, N-terminal 6xHis, E. coli BL21(DE3), Ni-NTA, 90 kDa
Test: HPLC of residual ZEA, Michaelis-Menten fit
Format: biochemical
Conditions: ATP, Mg2+; pH 8.0, 45 °C
Protocol: HPLC of residual ZEA, Michaelis-Menten fit on ZPH1101 | Michaelis constant (Km), and catalytic constant (kcat) were calculated through fitting to be

T1 sequence (O34796 whole entry): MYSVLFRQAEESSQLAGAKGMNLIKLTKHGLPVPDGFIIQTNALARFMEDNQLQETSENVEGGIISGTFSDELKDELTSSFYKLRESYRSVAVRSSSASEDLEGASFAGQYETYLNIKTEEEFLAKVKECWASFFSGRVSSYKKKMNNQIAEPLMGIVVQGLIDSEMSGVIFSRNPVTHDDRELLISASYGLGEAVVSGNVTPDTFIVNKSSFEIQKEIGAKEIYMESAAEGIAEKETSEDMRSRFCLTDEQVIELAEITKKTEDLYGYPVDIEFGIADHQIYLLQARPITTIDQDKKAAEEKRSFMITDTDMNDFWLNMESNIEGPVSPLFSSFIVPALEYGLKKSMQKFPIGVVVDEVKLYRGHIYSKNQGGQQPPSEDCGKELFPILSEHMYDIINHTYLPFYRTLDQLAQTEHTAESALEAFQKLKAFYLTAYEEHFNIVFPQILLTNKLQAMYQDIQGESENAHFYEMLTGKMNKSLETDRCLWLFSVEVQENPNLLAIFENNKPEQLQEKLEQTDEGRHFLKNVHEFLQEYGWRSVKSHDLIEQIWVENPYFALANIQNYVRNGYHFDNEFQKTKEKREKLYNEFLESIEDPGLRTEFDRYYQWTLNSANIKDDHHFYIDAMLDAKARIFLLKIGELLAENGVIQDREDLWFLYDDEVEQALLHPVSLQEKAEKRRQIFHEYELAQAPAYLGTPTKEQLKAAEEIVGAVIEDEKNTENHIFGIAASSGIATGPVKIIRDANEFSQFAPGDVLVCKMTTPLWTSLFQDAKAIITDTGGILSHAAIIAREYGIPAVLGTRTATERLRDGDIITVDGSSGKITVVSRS

For `C[C@H]1CCCC(=O)CCC/C=C/c2cc(O)cc(O)c2C(=O)O1` [zearalenone], the Km was 18.2 µM.
